Patent US8951977B2, “Amorphous roxithromycin composition” (North-West University, priority 2011, dated 2015)
In brackets after ≈: the same amount, converted by molar mass.

Tests used:
[1] = Solubility of roxithromycin forms in buffer media and water, excess solid, 37 degrees Celsius, 24 h, HPLC assay; assay type: physicochemical; conditions: for solubility at 24 h: 37 °C, thermodynamic from solid, 37 degrees Celsius
Description: In further analysis of the novel Form-III, each of five replicate test tubes were filled with an excess of the amorphous form (Form-III) of roxithromycin and 10 ml of solubility medium. The process was performed with each of the following mediums: acetate buffer (pH 4.5), phosphate buffer (pH 6.8), distilled water and 0.1 M HCl. The phosphate buffer comprises potassium dihydrogen phosphate, disodium hydrogen phosphate and water. The acetate buffer comprises ammonium acetate, glacial acetic acid and water. This method was also used for testing the prior art anhydrous roxithromycin.
The test tubes were fixed to a rotating axis (54 rpm) and submerged in a water bath at 37 degrees Celsius±2 degrees Celsius for twenty-four hours. The contents of the test tubes were filtered through a 0.45 μm filter and subsequently the respective filtrates were diluted.
The concentrations of the four filtrates of amorphous form (Form-III) of roxithromycin and roxithromycin raw material were respectively determined by HPLC (high performance liquid chromatography) assay. The HPLC assay was performed utilising a mobile phase of 30 g/L ammonium dihydrogen phosphate buffer at pH 5.3. The pH was adjusted with sodium hydroxide solution. The mobile phase comprised of buffer (600) and acetonitrile (400). A Luna C18 150 mm×4.6 mm column was used with a flow rate of 1.0 ml/min and a wavelength of 205 nm. Validation of this method provided a linear regression, R^2, of 0.9998.

[2] = Stability trial at increased temperature and 75% relative humidity for 4 weeks (TGA, XRPD, IR); assay type: physicochemical
Description: During further stability analysis, samples of both the raw material and amorphous form (Form-III) of roxithromycin were kept at 25 degrees Celsius and 75% relative humidity (RH) (FIG. 7); 30 degrees Celsius and 75% relative humidity (FIG. 8); and 40 degrees Celsius and 75% relative humidity, for a period of 4 weeks. The samples were analysed by thermogravimetric analysis (TGA) and percentage weight loss/gain was determined.
It is evident from FIGS. 7 and 8 that after week 4 of a stability trial an amount of approximately 2.5% moisture is absorbed by the samples. The TGA results obtained for the samples stored at 40° C./75% RH (FIG. 9) did however not show the same extent of moisture absorption as that obtained with the samples of FIGS. 7 and 8. […] No moisture-induced recrystallisations of the amorphous form were observed. […] The amorphous form (Form-III) could therefore be regarded as stable against increased temperatures and humidity.
The IR data illustrates that the absorbed moisture was not structurally absorbed within the molecule, but only absorbed on the surface of the structure. This is confirmed by the peak between wavenumbers 3580 to 3464 cm^−1 that represents the —OH bands of roxithromycin raw material and the lack of peaks in the amorphous form (Form-III) of roxithromycin. […]

stability in 0.1 M HCl ([1]; 0.1 M HCl solubility medium, results omitted for both forms) | solubility at 24 h ([1]; aqueous buffer, acetate buffer (pH 4.5)) [µg/mL] | solubility at 24 h ([1]; aqueous buffer, phosphate buffer (pH 6.8)) [µg/mL] | solubility at 24 h ([1]; distilled water) [µg/mL] | recrystallisation (XRPD) ([2]; storage four weeks at 40 degrees Celsius and 75% relative humidity) | Compound | solid-state stability of the amorphous form ([2]; 25, 30 and 40 degrees Celsius, 75% RH, 4 weeks)
rapid degradation |  |  |  |  | CC[C@H]1OC(=O)[C@H](C)[C@@H](O[C@H]2C[C@@](C)(OC)[C@@H](O)[C@H](C)O2)[C@H](C)[C@@H](O[C@@H]2O[C@H](C)C[C@H](N(C)C)[C@H]2O)[C@](C)(O)C[C@@H](C)/C(=N\OCOCCOC)[C@H](C)[C@@H](O)[C@]1(C)O [roxithromycin, 3R, 4S, 5S, 6R, 7R, 9R, 11S, 12R, 13S, 14R-6-[(2S,3R,4S,6R)-4-dimethylamino-3-hydroxy-6-methyloxan-2-yl]oxy-14-ethyl-7,12,13-trihydroxy-4-[(2R,4R,5S,6S)-5-hydroxy-4-methoxy-4,6-dimethyloxan-2-yl]oxy-10-(2-methoxyethoxymethoxyimino)-3,5,7,9,11,13-hexamethyl-1-oxacyclotetradecan-2-one] | 
 | 1150 ± 6.5 (≈ 1370 µM) | 208 ± 3.7 (≈ 249 µM) | 8.6 ± 1.8 (≈ 10.3 µM) | no recrystallisation | CC[C@H]1OC(=O)[C@H](C)[C@@H](O[C@H]2C[C@@](C)(OC)[C@@H](O)[C@H](C)O2)[C@H](C)[C@@H](O[C@@H]2O[C@H](C)C[C@H](N(C)C)[C@H]2O)[C@](C)(O)C[C@@H](C)/C(=N\OCOCCOC)[C@H](C)[C@@H](O)[C@]1(C)O [Form-III, roxithromycin] | stable over a period of 4 weeks and did not recrystallise to a crystalline form
